From the Deep4Chem optical property database come the findings set out here.

A short description of the first series: solvent given as SMILES. To be noted: in C1CCCCC1.
As for `Cc1ccccc1`, the emission maximum came out at 286.62 nm.

As to `c1ccc(-c2cc3cccc[n+]3[b-]3ccc(-c4cc[b-]5c(c4)c(-c4ccccc4)cc4cccc[n+]54)cc32)cc1`, the emission maximum was 568 nm.

As for `FC(F)(F)c1cc2n(n1)[B-]1(c3ccccc3Oc3ccccc31)[n+]1ccc3ccccc3c1-2`, the emission maximum was 473 nm.

In turn, `O=C1Nc2ccccc2/C1=C/C(=O)c1ccccc1` displayed an emission maximum of 374 nm.

`CN(C)c1ccc(-c2cc(-c3ccc(C#N)cc3)nn2C)cc1` displayed an emission maximum of 363 nm.

In turn, `CSC1=C2C=C(c3cc4n(c3)[B-](F)(F)[N+]3=CC=CC3=C4c3c(C)cc(C)cc3C)C(C)=[N+]2[B-](F)(F)n2c(C)ccc21` came in with an emission maximum of 652 nm.

Staying with this series, now noted: in C1CCOC1.
Molecule `CCCCCCc1ccc2c3c(ccc2c1)O[B-](c1ccccc1)(c1ccccc1)[N+](c1ccc([N+]2=Cc4c(ccc5cc(CCCCCC)ccc45)O[B-]2(c2ccccc2)c2ccccc2)cc1)=C3` gave an emission maximum of 568 nm.

For `N#Cc1c(N2CCCCC2)cc(-c2ccccc2)c2c1Cc1ccccc1-2`, the emission maximum turned out to be 449 nm.

In the case of `Fc1cc(-c2nc(-c3ccccc3)nc(-c3ccccc3)n2)ccc1-n1c2ccccc2c2c3c(ccc21)C1(c2ccccc2-c2ccccc21)c1ccccc1-3`, the emission maximum came to 487.96 nm.

Staying with this series, now noted: in C1COCCO1.
As for `CC(=O)Nc1ccc(C2=N/C(=C\c3ccc(C#N)cc3)C(=O)O2)cc1`, the emission maximum was found to be 461 nm.

Molecule `CN(C)c1ccc(/C=C/C=C/c2nc3ccccc3s2)cc1` yielded an emission maximum of 516 nm.

In the case of `Fc1cc(-c2nc(-c3ccccc3)nc(-c3ccccc3)n2)ccc1-n1c2ccccc2c2c3c(ccc21)C1(c2ccccc2-c2ccccc21)c1ccccc1-3`, the emission maximum came out at 461.11 nm.

The molecule `O=C1Nc2ccccc2/C1=C/C(=O)c1ccccc1` yielded an emission maximum of 396 nm.

The same series, now with this note: in CC#N.
As for `Cc1cc(-c2ccccc2)nc2c1ccc1nc(-c3ccccc3)cn12`, the emission maximum stood at 458 nm.

On to `CCCCCCc1ccc2c3c(ccc2c1)O[B-](c1ccccc1)(c1ccccc1)[N+](c1ccc([N+]2=Cc4c(ccc5cc(CCCCCC)ccc45)O[B-]2(c2ccccc2)c2ccccc2)cc1)=C3`, for which the emission maximum was 561 nm.

On to `O=c1oc2ccccc2cc1/C=C/c1ccc([N+](=O)[O-])cc1`, for which the emission maximum was found to be 539 nm.

For the molecule `CN(C)c1ccc(/C=C/C=C/c2nc3ccccc3s2)cc1`, the emission maximum was found to be 562 nm.

In the case of `COc1ccc(-c2c(-c3ccc(OC)cc3)c3c4c(cccc4c2-c2ccccc2)C(=O)c2ccccc2-3)cc1`, the emission maximum stood at 527 nm.

In the case of `COC(=O)CC1(C(=O)OC)Oc2c(c(C(C)=O)c3c(c2C(C)=O)OCO3)O1`, the emission maximum turned out to be 532 nm.

In turn, `c1cc2c3c(cccc3c1)NC(c1ccc3ccc4cccc5ccc1c3c45)N2` had an emission maximum of 458 nm.

In the case of `O=C1Nc2ccccc2/C1=C/C(=O)c1ccccc1`, the emission maximum was found to be 398 nm.

With `CCNc1cc2c(cc1C)C(c1ccccc1C(=O)O)=C1CCCC(/C=C/C3=[N+](C)c4ccc5ccccc5c4C3(C)C)=C1O2`, the emission maximum was determined as 749 nm.

In turn, `CN(C)c1ccc(-c2cc(-c3ccc(C#N)cc3)nn2C)cc1` gave an emission maximum of 595 nm.

In turn, `CSC1=C2C=C(c3cc4n(c3)[B-](F)(F)[N+]3=CC=CC3=C4c3c(C)cc(C)cc3C)C(C)=[N+]2[B-](F)(F)n2c(C)ccc21` displayed an emission maximum of 740 nm.

The series is the same for the next values; noted with them: in CC(C)(C)O.
In the case of `O=C1Nc2ccccc2/C1=C/C(=O)c1ccccc1`, the emission maximum is 407 nm.

Staying with this series, now noted: in CC(C)=O.
Molecule `CN(C)c1ccc(/C=C/C=C/c2nc3ccccc3s2)cc1` came in with an emission maximum of 557 nm.

For `CSC1=C2C=C(c3cc4n(c3)[B-](F)(F)[N+]3=CC=CC3=C4c3c(C)cc(C)cc3C)C(C)=[N+]2[B-](F)(F)n2c(C)ccc21`, the emission maximum came to 694 nm.

The same series, now with this note: in CC(C)O.
For the molecule `O=C1Nc2ccccc2/C1=C/C(=O)c1ccccc1`, the emission maximum was found to be 412 nm.

Staying with this series, now noted: in CCCCCC.
With `CN(C)c1ccc(/C=C/C=C/c2nc3ccccc3s2)cc1`, the emission maximum is listed as 478 nm.

The molecule `O=C1Nc2ccccc2/C1=C/C(=O)c1ccccc1` displayed an emission maximum of 374 nm.

The series is the same for the next values; noted with them: in CCCCO.
For the molecule `CN(C)c1ccc(/C=C/C=C/c2nc3ccccc3s2)cc1`, the emission maximum was 531 nm.

As to `O=C1Nc2ccccc2/C1=C/C(=O)c1ccccc1`, the emission maximum amounted to 411 nm.

Staying with this series, now noted: in CCCCOC(C)=O.
Regarding `Cc1cc(-c2ccccc2)nc2c1ccc1nc(-c3ccccc3)cn12`, the emission maximum is 449 nm.

Still in this series, the particulars now being: in CCCO.
As for `CN(C)c1ccc(/C=C/C=C/c2nc3ccccc3s2)cc1`, the emission maximum was 533 nm.

Staying with this series, now noted: in CCO.
`CN(C)c1cc2c(cc1F)c(=O)c1cc(F)c(N3CCCCC3)cc1n2C` registered an emission maximum of 443 nm.

Molecule `CN(C)c1ccc(/C=C/C=C/c2nc3ccccc3s2)cc1` yielded an emission maximum of 560 nm.

For the molecule `Oc1ccc(-c2ccco2)cc1-c1nc2ccccc2s1`, the emission maximum is 435 nm.

In the case of `CCNc1cc2c(cc1C)C(c1ccccc1C(=O)O)=C1CCCC(/C=C/C3=[N+](C)c4ccc5ccccc5c4C3(C)C)=C1O2`, the emission maximum is given as 741 nm.

The series is the same for the next values; noted with them: in CCOC(C)=O.
For `Cc1cc(-c2ccccc2)nc2c1ccc1nc(-c3ccccc3)cn12`, the emission maximum is 454 nm.

In turn, `CCn1c(-c2ccc(N(c3ccccc3)c3cccc4ccccc34)cc2)c(-c2ccc3ccccc3c2)c(-c2ccc3ccccc3c2)c1-c1ccc(N(c2ccccc2)c2cccc3ccccc23)cc1` gave an emission maximum of 434 nm.

Turning to `O=C1Nc2ccccc2/C1=C/C(=O)c1ccccc1`, the emission maximum was determined as 394 nm.

`CN(C)c1ccc(-c2cc(-c3ccc(C#N)cc3)nn2C)cc1` displayed an emission maximum of 481 nm.

Regarding `CSC1=C2C=C(c3cc4n(c3)[B-](F)(F)[N+]3=CC=CC3=C4c3c(C)cc(C)cc3C)C(C)=[N+]2[B-](F)(F)n2c(C)ccc21`, the emission maximum turned out to be 664 nm.

Still in this series, the particulars now being: in CCOCC.
The molecule `CN(C)c1ccc(-c2cc(-c3ccc(C#N)cc3)nn2C)cc1` gave an emission maximum of 429 nm.

Staying with this series, now noted: in CN(C)C=O.
With `CN(C)c1ccc(/C=C/C=C/c2nc3ccccc3s2)cc1`, the emission maximum is reported as 567 nm.

For the molecule `Fc1cc(-c2nc(-c3ccccc3)nc(-c3ccccc3)n2)ccc1-n1c2ccccc2c2c3c(ccc21)C1(c2ccccc2-c2ccccc21)c1ccccc1-3`, the emission maximum is on record as 533.56 nm.

For the molecule `COc1ccc2c(c1)[nH]c1c3[nH]c4cc(OC)ccc4c3c3nsnc3c21`, the emission maximum was 544 nm.

For the molecule `O=C1Nc2ccccc2/C1=C/C(=O)c1ccccc1`, the emission maximum came to 404 nm.

The molecule `NCCCCCCCCCCCCN1C(=O)c2ccc3c4ccc5c6c(ccc(c7ccc(c2c37)C1=O)c64)C(=O)N(CCCCCCCCCCCCN)C5=O` registered an emission maximum of 537 nm.

`CN(C)c1ccc(-c2cc(-c3ccc(C#N)cc3)nn2C)cc1` gave an emission maximum of 590 nm.

The series is the same for the next values; noted with them: in CO.
For `Cc1cc(-c2ccccc2)nc2c1ccc1nc(-c3ccccc3)cn12`, the emission maximum was 450 nm.

The molecule `CN(C)c1ccc(/C=C/C=C/c2nc3ccccc3s2)cc1` had an emission maximum of 573 nm.

For `COc1ccc(-c2c(-c3ccc(OC)cc3)c3c4c(cccc4c2-c2ccccc2)C(=O)c2ccccc2-3)cc1`, the emission maximum was 579 nm.

In turn, `CC1(C)C(/C=C/C2=C(Cl)C(=C/C=C3/N(Cc4ccccc4)c4ccccc4C3(C)C)/CCC2)=[N+](Cc2ccccc2)c2ccccc21` gave an emission maximum of 813 nm.

As to `CC1=CC(Br)=CN2C[n+]3cc(Br)cc(C)c3N=C12`, the emission maximum was 502 nm.
